Results from PubChem BioAssay AID248 (DTP/NCI, 2004).
Inconclusive results and toxic doses are left out. No stated cut-off is given here; in the data, active means T/C of 150% or more; inactive means T/C below 125%.

Test system: L1210 leukemia ip in BDF1 mice, survival T/C
Assay: NCI In Vivo Anticancer Drug Screen. Data for tumor model L1210 Leukemia (intraperitoneal) in B6D2F1 (BDF1) mice
Settings: endpoint: mean survival time, higher = longer survival
Procedure, shortened: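 Antitumor effect is assessed in tumor-bearing animals. Survival in the compound arm is compared with a vehicle-dosed control arm and expressed as their quotient.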

[1] = dose: 100.0 mg/kg/injection, schedule: Q04DX003 (ip), vehicle: saline with Tween-80
[2] = dose: 200.0 mg/kg/injection, schedule: Q04DX003 (ip), vehicle: saline with Tween-80
[3] = dose: 400.0 mg/kg/injection, schedule: Q04DX003 (ip), vehicle: saline with Tween-80

Measured: T/C

Cc1cc(Cl)ccc1NS(=O)(=O)c1ccc(Br)cc1
inactive: dose: 100.0 mg/kg/injection, schedule: Q01DX009 (ip), vehicle: saline with Tween-80 97 % of control | [1] 102 % of control | dose: 200.0 mg/kg/injection, schedule: Q01DX009 (ip), vehicle: saline with Tween-80 98 % of control | [2] 100 % of control | dose: 400.0 mg/kg/injection, schedule: Q01DX009 (ip), vehicle: saline with Tween-80 93 % of control | [3] 96 % of control

C[n+]1ccc(/C=C/c2ccnc3c(O)cccc23)c2ccccc21
inactive: dose: 15.0 mg/kg/injection, schedule: Q01DX001 (ip), vehicle: saline 112 % of control

O=C(c1ccccc1)c1ccc(C(=O)c2ccccc2)c2c1C(=O)c1ccccc1C2=O
inactive: [1] 92 % of control | [2] 95 % of control | [3] 98 % of control

Nc1nc(-c2cccs2)cc(C(F)(F)F)n1
inactive: dose: 100.0 mg/kg/injection, schedule: Q04DX003 (ip), vehicle: Klucel (hydroxypropylcellulose) (HPC) 94 % of control | dose: 200.0 mg/kg/injection, schedule: Q04DX003 (ip), vehicle: Klucel (hydroxypropylcellulose) (HPC) 94 % of control | dose: 400.0 mg/kg/injection, schedule: Q04DX003 (ip), vehicle: Klucel (hydroxypropylcellulose) (HPC) 102 % of control

CCSC1C(OC(C)=O)C(C(CI)OC(C)=O)OC1n1cc(C)c(=O)[nH]c1=O (stereo not drawn)
inactive: dose: 100.0 mg/kg/injection, schedule: Q01DX005 (ip), vehicle: saline 93 % of control | dose: 200.0 mg/kg/injection, schedule: Q01DX005 (ip), vehicle: saline 98 % of control

O=C(N/N=C/c1ccc2c(c1)OCO2)c1ccc([N+](=O)[O-])cc1
inactive: dose: 50.0 mg/kg/injection, schedule: Q01DX001 (ip), vehicle: carboxymethylcellulose (CMC) 97 % of control | dose: 100.0 mg/kg/injection, schedule: Q01DX001 (ip), vehicle: carboxymethylcellulose (CMC) 92 % of control | dose: 200.0 mg/kg/injection, schedule: Q01DX001 (ip), vehicle: carboxymethylcellulose (CMC) 94 % of control | dose: 400.0 mg/kg/injection, schedule: Q01DX001 (ip), vehicle: carboxymethylcellulose (CMC) 92 % of control

Cc1ccc(NC(=O)Nc2cc(S(=O)(=O)O)ccc2Oc2ccccc2Cl)cc1
inactive: dose: 100.0 mg/kg/injection, schedule: Q01DX009 (ip), vehicle: saline sonified 95 % of control | dose: 200.0 mg/kg/injection, schedule: Q01DX009 (ip), vehicle: saline sonified 103 % of control

CCCCCCCCCCOC(CN)C(Cl)(Cl)Cl (stereo not drawn)
inactive: dose: 12.5 mg/kg/injection, schedule: Q01DX009 (ip), vehicle: saline with Tween-80 93 % of control | dose: 12.5 mg/kg/injection, schedule: Q04DX003 (ip), vehicle: saline with Tween-80 98 % of control | dose: 25.0 mg/kg/injection, schedule: Q01DX009 (ip), vehicle: saline with Tween-80 97 % of control | dose: 25.0 mg/kg/injection, schedule: Q04DX003 (ip), vehicle: saline with Tween-80 101 % of control | dose: 50.0 mg/kg/injection, schedule: Q04DX003 (ip), vehicle: saline with Tween-80 103 % of control

CC(=O)O/N=C(/C)c1ccccc1
inactive: dose: 75.0 mg/kg/injection, schedule: Q01DX009 (ip), vehicle: saline sonified 102 % of control | dose: 100.0 mg/kg/injection, schedule: Q04DX003 (ip), vehicle: saline sonified 100 % of control | dose: 150.0 mg/kg/injection, schedule: Q01DX009 (ip), vehicle: saline sonified 100 % of control | dose: 200.0 mg/kg/injection, schedule: Q04DX003 (ip), vehicle: saline sonified 97 % of control | dose: 400.0 mg/kg/injection, schedule: Q04DX003 (ip), vehicle: saline sonified 100 % of control

CC1CC1C(N)=O (stereo not drawn)
inactive: dose: 100.0 mg/kg/injection, schedule: Q04DX002 (ip), vehicle: saline 97 % of control | dose: 200.0 mg/kg/injection, schedule: Q04DX002 (ip), vehicle: saline 110 % of control

ClC1C2c3ccccc3C(C1Cl)[n+]1ccccc12 (stereo not drawn)
inactive: dose: 6.25 mg/kg/injection, schedule: Q01DX009 (ip), vehicle: Klucel (hydroxypropylcellulose) (HPC) 109 % of control | dose: 12.5 mg/kg/injection, schedule: Q01DX009 (ip), vehicle: Klucel (hydroxypropylcellulose) (HPC) 98 % of control | dose: 25.0 mg/kg/injection, schedule: Q01DX009 (ip), vehicle: Klucel (hydroxypropylcellulose) (HPC) 94 % of control | dose: 35.0 mg/kg/injection, schedule: Q01DX009 (ip), vehicle: Klucel (hydroxypropylcellulose) (HPC) 95 % of control

COC(=O)CCCNC(=O)/C=C1/c2cc(OC)c(OC)cc2CCC1S(=O)(=O)OC (stereo not drawn)
inactive: dose: 100.0 mg/kg/injection, schedule: Q01DX009 (ip), vehicle: saline 100 % of control | dose: 100.0 mg/kg/injection, schedule: Q04DX003 (ip), vehicle: saline 105 % of control | dose: 200.0 mg/kg/injection, schedule: Q01DX009 (ip), vehicle: saline 110 % of control | dose: 200.0 mg/kg/injection, schedule: Q04DX003 (ip), vehicle: saline 97 % of control | dose: 400.0 mg/kg/injection, schedule: Q01DX009 (ip), vehicle: saline 88 % of control | dose: 400.0 mg/kg/injection, schedule: Q04DX003 (ip), vehicle: saline 100 % of control
